# US8722849B2, “Polypeptides” (Novo Nordisk A/S, priority 2011, dated 2014)
# Starred links: 1 amine or outer side, 2 acyl side, 3 side chain; linkers in the order of their positions; H or OH if unused. Positions of bridges follow the written chain, without caps; N, C: chain ends. Non-standard residues stand in square brackets, D forms with d. Residues, ends and D or L forms follow the SMILES beside them. *: point of attachment. C20 diacid = O=C(O)CCCCCCCCCCCCCCCCCCC(=O)*; C18 diacid = O=C(O)CCCCCCCCCCCCCCCCC(=O)*; γGlu = O=C(O)[C@H](CCC(=O)[*:2])N[*:1]; Orn = NCCC[C@H](N)C(=O)O; AEEA = NCCOCCOCC(=O)O
# Columns and labels:
# [1] = system: food intake; experiment: Assay (I) efficacy testing on appetite (food intake), ad libitum fed rat model; format: in vivo, Sprague Dawley (SD) rats; conditions: 3 nmol/kg
# How it was run: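 Food consumption was logged per animal every hour up to 7 h and again at 24 h (occasionally 48 h) after a single 0.01–3 mg/kg dose, given sc, po or ip at dark-phase onset. Ad libitum fed SD rats, 200–250 g, kept on inverted light/dark cycle; vehicle group included, outliers removed by Grubbs test.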
# [2] = Assay (III) ThT fibrillation assay for physical stability; format: physicochemical
# How it was run: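 Freshly prepared formulations, pH-adjusted, with 1 μM ThT; four or eight replicates incubated at 37 °C under 960 rpm orbital shaking. Fluorescence (ex 444/em 485 nm) read every 20 min; […]. Peptide concentration measured by RP-HPLC before and after the run.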
ThT pH 4.0 lag time (h) ([2]; ThT fibrillation assay),ThT pH 4.0 lag time ([2]; Table 8) [h],ThT pH 4.0 lag time ([2]; Table 9) [h],ThT pH 4.0 lag time ([2]; ThT fibrillation assay) [h],SMILES,Food intake reduction 0-24 h 3 nmol/kg (%) [1] [%],Food intake reduction 24-48 h 3 nmol/kg (%) [1] [%]
2,–,–,–,"CC[C@H](C)[C@H](NC(=O)[C@@H]1CCCN1C(=O)CNC(=O)[C@H](Cc1ccccc1)NC(=O)[C@H](CC(N)=O)NC(=O)[C@H](CC(N)=O)NC(=O)[C@H](CO)NC(=O)[C@H](CO)NC(=O)[C@H](Cc1c[nH]cn1)NC(=O)[C@H](Cc1c[nH]cn1)NC(=O)[C@H](CC(C)C)NC(=O)[C@H](Cc1ccccc1)NC(=O)[C@H](CCC(=O)O)NC(=O)[C@H](C)NC(=O)[C@H](CC(C)C)NC(=O)[C@H](CCCNC(=N)N)NC(=O)[C@H](CCC(N)=O)NC(=O)[C@@H](NC(=O)[C@H](C)NC(=O)[C@@H]1CSSC[C@H](NC(=O)[C@H](CCCCN)NC(=O)[C@H](CCC(=O)O)NC(=O)CC[C@H](NC(=O)CCCCCCCCCCCCCCCCCCC(=O)O)C(=O)O)C(=O)N[C@@H](CC(N)=O)C(=O)N[C@@H]([C@@H](C)O)C(=O)N[C@@H](C)C(=O)N[C@@H]([C@@H](C)O)C(=O)N1)[C@@H](C)O)C(=O)N[C@@H](CC(C)C)C(=O)N1CCC[C@H]1C(=O)N1CCC[C@H]1C(=O)N[C@H](C(=O)N[C@@H](CC(N)=O)C(=O)N[C@H](C(=O)NCC(=O)N[C@@H](CO)C(=O)N[C@@H](CC(N)=O)C(=O)N[C@H](C(=O)N[C@@H](Cc1ccc(O)cc1)C(N)=O)[C@@H](C)O)C(C)C)[C@@H](C)O [Example 26, N-alpha-[(S)-4-Carboxy-4-(19-carboxynonadecanoylamino)butyryl]-Glu-[Glu14,His17]-pramlintide] ({C20 diacid-γGlu}-EKCNTATCATQRLAEFLHHSSNNFGPILPPTNVGSNTY-NH2; disulfide 3-8 (inferred); C-terminus assumed)",46,39
22,–,–,–,"CC[C@H](C)[C@H](NC(=O)[C@@H]1CCCN1C(=O)CNC(=O)[C@H](Cc1ccccc1)NC(=O)[C@H](CC(N)=O)NC(=O)[C@H](CC(N)=O)NC(=O)[C@H](CO)NC(=O)[C@H](CO)NC(=O)[C@H](CCCNC(=N)N)NC(=O)[C@H](Cc1c[nH]cn1)NC(=O)[C@H](CC(C)C)NC(=O)[C@H](Cc1ccccc1)NC(=O)[C@H](CCC(=O)O)NC(=O)[C@H](C)NC(=O)[C@H](CC(C)C)NC(=O)[C@H](CCCNC(=N)N)NC(=O)[C@H](CCC(N)=O)NC(=O)[C@@H](NC(=O)[C@H](C)NC(=O)[C@@H]1CSSC[C@H](NC(=O)[C@H](CCCN)NC(=O)[C@@H](CCCNC(=N)N)NC(=O)[C@@H](CCCNC(=N)N)NC(=O)COCCOCCNC(=O)COCCOCCNC(=O)CC[C@H](NC(=O)CCCCCCCCCCCCCCCCC(=O)O)C(=O)O)C(=O)N[C@@H](CC(N)=O)C(=O)N[C@@H]([C@@H](C)O)C(=O)N[C@@H](C)C(=O)N[C@@H]([C@@H](C)O)C(=O)N1)[C@@H](C)O)C(=O)N[C@@H](CC(C)C)C(=O)N1CCC[C@H]1C(=O)N1CCC[C@H]1C(=O)N[C@H](C(=O)N[C@@H](CC(N)=O)C(=O)N[C@H](C(=O)NCC(=O)N[C@@H](CO)C(=O)N[C@@H](CC(N)=O)C(=O)N[C@H](C(=O)N[C@@H](Cc1ccc(O)cc1)C(N)=O)[C@@H](C)O)C(C)C)[C@@H](C)O [Example 120, N-alpha-[2-(2-{2-[2-(2-{2-[(S)-4-Carboxy-4-(17-carboxyheptadecanoylamino)butyrylamino]ethoxy}ethoxy)acetylamino]ethoxy}ethoxy)acetyl]-D-Arg-D-Arg-[Orn1,Glu14,His17,Arg18]-pramlintide] ({C18 diacid-γGlu-AEEA-AEEA}-[dR][dR][Orn]CNTATCATQRLAEFLHRSSNNFGPILPPTNVGSNTY-NH2; disulfide 4-9 (inferred); C-terminus assumed)",53,2
>45,>45,>45,>45,"CC[C@H](C)[C@H](NC(=O)[C@@H]1CCCN1C(=O)CNC(=O)[C@H](Cc1ccccc1)NC(=O)[C@H](CC(N)=O)NC(=O)[C@H](CC(N)=O)NC(=O)[C@H](CO)NC(=O)[C@H](CO)NC(=O)[C@H](Cc1c[nH]cn1)NC(=O)[C@H](Cc1c[nH]cn1)NC(=O)[C@H](CC(C)C)NC(=O)[C@H](Cc1ccccc1)NC(=O)[C@H](CCC(=O)O)NC(=O)[C@H](C)NC(=O)[C@H](CC(C)C)NC(=O)[C@H](CCCNC(=N)N)NC(=O)[C@H](CCC(N)=O)NC(=O)[C@@H](NC(=O)[C@H](C)NC(=O)[C@@H]1CSSC[C@H](NC(=O)[C@H](CCCNC(=N)N)NC(=O)CNC(=O)CC[C@H](NC(=O)CCCCCCCCCCCCCCCCCCC(=O)O)C(=O)O)C(=O)N[C@@H](CC(N)=O)C(=O)N[C@@H]([C@@H](C)O)C(=O)N[C@@H](C)C(=O)N[C@@H]([C@@H](C)O)C(=O)N1)[C@@H](C)O)C(=O)N[C@@H](CC(C)C)C(=O)N1CCC[C@H]1C(=O)N1CCC[C@H]1C(=O)N[C@H](C(=O)N[C@@H](CC(N)=O)C(=O)N[C@H](C(=O)NCC(=O)N[C@@H](CO)C(=O)N[C@@H](CC(N)=O)C(=O)N[C@H](C(=O)N1CCC[C@H]1C(N)=O)[C@@H](C)O)C(C)C)[C@@H](C)O [Example 101, N-alpha-[(S)-4-Carboxy-4-(19-carboxynonadecanoylamino)butyryl]-Gly-[Arg1,Glu14,His17,Pro37]-pramlintide] ({C20 diacid-γGlu}-GRCNTATCATQRLAEFLHHSSNNFGPILPPTNVGSNTP-NH2; disulfide 3-8 (inferred))",70,90
7.3,–,–,–,"CC[C@H](C)[C@H](NC(=O)[C@@H]1CCCN1C(=O)CNC(=O)[C@H](Cc1ccccc1)NC(=O)[C@H](CC(N)=O)NC(=O)[C@H](CC(N)=O)NC(=O)[C@H](CO)NC(=O)[C@H](CO)NC(=O)[C@H](Cc1c[nH]cn1)NC(=O)[C@H](Cc1c[nH]cn1)NC(=O)[C@H](CC(C)C)NC(=O)[C@H](Cc1ccccc1)NC(=O)[C@H](CCC(=O)O)NC(=O)[C@H](C)NC(=O)[C@H](CC(C)C)NC(=O)[C@H](CCCNC(=N)N)NC(=O)[C@H](CCC(N)=O)NC(=O)[C@@H](NC(=O)[C@H](C)NC(=O)[C@@H]1CSSC[C@H](NC(=O)[C@H](CCCCN)NC(=O)[C@H](CCC(=O)O)NC(=O)CC[C@H](NC(=O)CCCCCCCCCCCCCCCCC(=O)O)C(=O)O)C(=O)N[C@@H](CC(N)=O)C(=O)N[C@@H]([C@@H](C)O)C(=O)N[C@@H](C)C(=O)N[C@@H]([C@@H](C)O)C(=O)N1)[C@@H](C)O)C(=O)N[C@@H](CC(C)C)C(=O)N1CCC[C@H]1C(=O)N1CCC[C@H]1C(=O)N[C@H](C(=O)N[C@@H](CC(N)=O)C(=O)N[C@H](C(=O)NCC(=O)N[C@@H](CO)C(=O)N[C@@H](CC(N)=O)C(=O)N[C@H](C(=O)N[C@@H](Cc1ccc(O)cc1)C(N)=O)[C@@H](C)O)C(C)C)[C@@H](C)O [Example 42, N-alpha-[(S)-4-Carboxy-4-(17-carboxyheptadecanoylamino)butyryl]-Glu-[Glu14,His17]-pramlintide] ({C18 diacid-γGlu}-EKCNTATCATQRLAEFLHHSSNNFGPILPPTNVGSNTY-NH2; disulfide 3-8 (inferred))",45,5
>45,>45,>45,>45,"CC[C@H](C)[C@H](NC(=O)[C@@H]1CCCN1C(=O)CNC(=O)[C@H](Cc1ccccc1)NC(=O)[C@H](CC(N)=O)NC(=O)[C@H](CC(N)=O)NC(=O)[C@H](CO)NC(=O)[C@H](CO)NC(=O)[C@H](Cc1c[nH]cn1)NC(=O)[C@H](CCCNC(=N)N)NC(=O)[C@H](CC(C)C)NC(=O)[C@H](Cc1ccccc1)NC(=O)[C@H](CCC(=O)O)NC(=O)[C@H](C)NC(=O)[C@H](CC(C)C)NC(=O)[C@H](CCCNC(=N)N)NC(=O)[C@H](CCC(N)=O)NC(=O)[C@@H](NC(=O)[C@H](C)NC(=O)[C@@H]1CSSC[C@H](NC(=O)[C@H](Cc2c[nH]cn2)NC(=O)CNC(=O)CC[C@H](NC(=O)CCCCCCCCCCCCCCCCCCC(=O)O)C(=O)O)C(=O)N[C@@H](CC(N)=O)C(=O)N[C@@H]([C@@H](C)O)C(=O)N[C@@H](C)C(=O)N[C@@H]([C@@H](C)O)C(=O)N1)[C@@H](C)O)C(=O)N[C@@H](CC(C)C)C(=O)N1CCC[C@H]1C(=O)N1CCC[C@H]1C(=O)N[C@H](C(=O)N[C@@H](CC(N)=O)C(=O)N[C@H](C(=O)NCC(=O)N[C@@H](CO)C(=O)N[C@@H](CC(N)=O)C(=O)N[C@H](C(=O)N1CCC[C@H]1C(N)=O)[C@@H](C)O)C(C)C)[C@@H](C)O [Example 89, N-alpha-[(S)-4-Carboxy-4-(19-carboxynonadecanoylamino)butyryl]-Gly-[His1,Glu14,Arg17,Pro37]-pramlintide] ({C20 diacid-γGlu}-GHCNTATCATQRLAEFLRHSSNNFGPILPPTNVGSNTP-NH2; disulfide 3-8 (inferred))",42,23
